Experimental data published in patent US20170189429A1, “Treating Arrhythmia with Mitochondrial-Targeted Antioxidants” (Rhode Island Hospital, priority 2014, published 2017).

How the values were obtained:
Connexin 43 = Connexin 43 protein level expression in heart tissue of MI mice; assay type: in vivo, mouse
Description: FIG. 5A is a blot showing Connexin 43 protein level expressions and Glyceraldehyde 3-phosphate dehydrogenase (GAPDH) protein level expressions in heart tissue of Sham, MI mice and MI mice treated with mitoTEMPO (MI tx MT).
FIG. 5B is a bar graph showing Connexin 43/GAPDH protein expression in Sham, MI mice and MI mice treated with mitoTEMPO (MI tx MT).
MI was induced in 12-week old C57BL/6 mice by coronary artery occlusion. Sham-operated mice were used as controls. Two weeks after surgery, MI mice were either given a mitochondria-targeted antioxidant, mitoTEMPO (0.7 mg/kg/day, intraperitoneally), or left untreated for two weeks (Rutledge C A et al. J Am Coll Cardiol 2014; 63:928-934).

[1] = system: cardiac Na+ channel (Nav1.5); experiment: Whole-cell patch clamp recording of Na+ currents (INa) in cardiomyocytes isolated from MI mice treated with antioxidant; assay type: in vivo, mouse
Procedure: (§1) The following materials and methods were used to generate the data described herein. MI was induced in 12-week old C57BL/6 mice by coronary artery occlusion. Sham-operated mice were used as controls. Two weeks following surgery, MI mice were either given a mitochondria-targeted antioxidant, mitoTEMPO (0.7 mg/kg/day, intraperitoneally), or left untreated for two weeks. Cardiomyocytes isolated from the scar border of MI mice or from the left ventricular (LV) anterior wall of sham-operated mice were utilized for whole-cell patch clamp recording of Na^+currents (INa) and for measurements of mitochondrial reactive oxygen species (mitoROS) using flow cytometry. Nav1.5 protein expression levels were determined in the LV from MI and sham-operated mice. Echocardiography was performed 2- and 4-weeks following MI. Oxidized nicotinamide adenine dinculeotide used for experiments was purchased from Sigma-Aldrich, catalog number N1636 “β-Nicotinamide adenine dinucleotide hydrate, ≧99%, Synonyms: NAD^+, β-DPN, β-NAD, Coenzyme 1, Cozymase, DPN, Diphosphopyridine nucleotide, NAD, Nadide” and dissolved in water. MitoQ was used at 10 nM.
MI was induced in 12-week old C57BL/6 mice by coronary artery occlusion. Sham-operated mice were used as controls. […]
Whole cell INa were measured using the whole-cell patch clamp technique in voltage-clamp mode at room temperature.

[2] = system: SCN5A: sodium channel, voltage gated type V alpha subunit; experiment: INa in SCN5A cells treated with NADH; assay type: cell-based
Procedure: FIG. 1A is a graph showing a series of sodium current traces measuring a INa reduction induced by NADH (nicotinamide adenine dinucleotide) (SCN5A+100 μM [NADH]) compared to normal INa (SCN5A), which can be restored by mitoTEMPO (SCN5A+100 μM [NADH]+5 μM [mitoTEMPO]). SCN5A: sodium channel, voltage gated type V alpha subunit
FIG. 1B is a bar graph showing INa reduction induced by NADH (SCN5A+100 μM [NADH]) compared to normal INa (SCN5A), which can be restored by mitoTEMPO (SCN5A+100 μM [NADH]+5 μM [mitoTEMPO]), which is also compared to mitoTEMPO (5 μM [mitoTEMPO]).
The SCNSA group is the untreated cells group, and the others were treated with 100 μmol/L NADH in the absence or presence of NAD from 50 to 1000 μmol/L.
The SCN5A group is the untreated cells group, and the others were treated with 100 μmol/L NADH in the absence or presence of NAD from 50 to 1000 μmol/L.

[3] = system: mitochondrial reactive oxygen species (mitoROS); experiment: mitoROS by flow cytometry (MitoSOX Red) in cardiomyocytes of treated MI mice; assay type: in vivo, mouse
Procedure: The following materials and methods were used to generate the data described herein. MI was induced in 12-week old C57BL/6 mice by coronary artery occlusion. Sham-operated mice were used as controls. Two weeks following surgery, MI mice were either given a mitochondria-targeted antioxidant, mitoTEMPO (0.7 mg/kg/day, intraperitoneally), or left untreated for two weeks. Cardiomyocytes isolated from the scar border of MI mice or from the left ventricular (LV) anterior wall of sham-operated mice were utilized for whole-cell patch clamp recording of Na^+currents (INa) and for measurements of mitochondrial reactive oxygen species (mitoROS) using flow cytometry. Nav1.5 protein expression levels were determined in the LV from MI and sham-operated mice. Echocardiography was performed 2- and 4-weeks following MI. […]
A BD LSR II (BD Biosciences) flow cytometer was used for high-throughput evaluation of mitoROS, mitochondrial volume, and cell survival. […] Separate suspensions were stained with propidium iodide (10 μg/mL) and evaluated at 617 nm to measure for cell integrity. Five thousand gated cells were recorded in each sample. […]

[4] = Echocardiography 2 and 4 weeks following MI; assay type: in vivo, mouse; conditions: MI mice
Procedure: as §1

mitochondrial ROS [5] = experiment: Mitochondrial ROS by MitoSox Red confocal microscopy in PL-treated cells and DOCA myocytes; assay type: cell-based, mouse
Procedure: FIG. 6A is a photo showing representative confocal microscopy images of myocytes of 3 groups. Scale bar, 10 μm. Mitochondrial ROS production in response to intracellular NADH was monitored by MitoSox Red with SCNSA cells and myocytes. The control groups were untreated, the pyruvate and lactate (PL) groups were treated with 1 and 10 mmol/L PL buffer, respectively, for 10 minutes, and the NAD-PL groups were incubated with 500 μmol/L NAD^+ for ˜6 hours and then treated with PL buffer for 10 minutes.
FIG. 6C is a photo showing that mitochondrial ROS levels were increased in DOCA (deoxycorticosterone) myopathic mice and reduced by NAD treatment (500 μmol/L). Representative confocal microscopy images of mitochondrial ROS levels were obtained with treatment of myocytes monitored with MitoTracker Green and MitoSox Red. The white scale bar is 20 μm. […]
Mitochondrial ROS production in response to intracellular NADH was monitored by MitoSox Red with SCNSA cells and myocytes (FIGS. 6A and 6B). […]
Mitochondrial ROS levels were increased in DOCA myopathic mice and reduced by NAD^+ treatment (500 μmol/L) (FIG. 6C. Representative confocal microscopy images of mitochondrial ROS levels were obtained with treatment of myocytes monitored with MitoTracker Green and MitoSox Red. The white scale bar is 20 μm. The extremely red cells are dying myocytes that have very high levels of ROS.

mitochondrial ROS [6] = experiment: Mitochondrial ROS by flow cytometry in DOCA mice injected with NAD+; assay type: in vivo, mouse; conditions: 100 mg/kg injected in the neck, P>0.05
Procedure: Three to four animals and ˜10,000 myocytes from each animal were tested in each group in flow cytometry (FIG. 8A).

cardiac INa = experiment: Peak INa of DOCA mouse cardiomyocytes treated with NAD+; assay type: cell-based; conditions: 500 μmol/L
Description: NAD^+ restored INa decreased by mitoROS in PL-treated cells and in DOCA myocytes.

INa = INa in cardiomyopathy of DOCA mice injected with NAD; assay type: in vivo, mouse; conditions: injection 100 mg/kg
Procedure: Reduced INa in cardiomyopathy of DOCA was corrected by injection of NAD (100 mg/kg), which had no effect on the sham group (FIG. 8B).

[7] = system: sodium channel current (INa); experiment: Patch clamp peak INa in adult mouse cardiomyocytes treated with antimycin A; assay type: cell-based
Procedure: FIG. 9A is a bar graph showing that MitoQ restored INa that was decreased by antimycin A. The peak INa at −30 mV in adult mouse cardiomyocytes was decreased in antimycin A (5-10 μM) compared with SCNSA alone. Treatment using MitoQ at 10 nM with a 1-2 hour preincubation time restored INa. The SCNSA group is the untreated group. For patch clamp, MitoQ and antimycin A were also applied to the patch clamp bath solution during the entire time of patching, respectively or together. INa was measured at room temperature. Data shown in FIGS. 9A and 9B were obtained from 3 different mice, and 16-28 cells were used on average in each group.
In addition to MitoTEMP and NAD^+, another mitochondrial-targeted antioxidant, MitoQ, was tested. […] is an antibiotic that induces apoptosis and inhibits the mitochondrial electron transport chain, thereby inducing oxidative stress and generating reactive oxygen species. Because antimycin A is known to generate ROS (for example, increasing superoxide formation), it decreases the sodium channel current (INa). Additionally, antiomycin A causes damage to mitochondrial DNA, lipids, and proteins in cells treated with the antibiotic. […] Mitochondrial ROS production in response to increased antimycin A levels was monitored by MitoSox Red with SCNSA cells and myocytes (FIGS. 9A and 9B). […]

ROS = ROS density by MitoSox dye in adult mouse cardiomyocytes treated with antimycin A; assay type: cell-based; conditions: MitoQ 1-2 hours pretreatment, 10 nM
Procedure: FIG. 9B is a bar graph showing that Mito Q decreased ROS that was generated by antimycin A. ROS density in adult mouse cardiomyocytes was measured using MitoSox dye. Adult mouse cardiomyocytes were isolated, and MitoQ was applied for 1-2 hours pretreatment.
In addition to MitoTEMP and NAD^+, another mitochondrial-targeted antioxidant, MitoQ, was tested. […] is an antibiotic that induces apoptosis and inhibits the mitochondrial electron transport chain, thereby inducing oxidative stress and generating reactive oxygen species. Because antimycin A is known to generate ROS (for example, increasing superoxide formation), it decreases the sodium channel current (INa). Additionally, antiomycin A causes damage to mitochondrial DNA, lipids, and proteins in cells treated with the antibiotic. MitoSOX Red is a fluorescent mitochondrial probe used to measure ROS production. Mitochondrial ROS production in response to increased antimycin A levels was monitored by MitoSox Red with SCNSA cells and myocytes (FIGS. 9A and 9B).
Isolated adult mouse cardiomyocytes were pretreated with MitoQ.

[8] = rodents treated 0.7 mg/kg/day intraperitoneally after ischemic insult

Molecule: CC1(C)CC(NC(=O)C[P+](c2ccccc2)(c2ccccc2)c2ccccc2)CC(C)(C)N1[O] [mitoTEMPO, (2-(2,2,6,6-Tetramethylpiperidin-1-oxyl-4-ylamino)-2-oxoethyl)triphenylphosphonium chloride monohydrate]
- effect on connexin 43 downregulation in MI (Connexin 43; MI mice): no effect
- Connexin 43 level, of sham levels (Connexin 43; treated MI mice, untreated MI 56%, P<0.01 vs sham, ns vs MI): 41%
- peak INa density ([1]; MI mice, 0.7 mg/kg/day intraperitoneally for two weeks, isolated LV cardiomyocytes, sham −24.0±1.8, untreated MI −14.3±1.4): −19.4±0.8 pA/pF
- INa activity, effect in words [1, 8]: statistically significant increase
- INa reduced by NADH, effect of antioxidant ([2]; SCN5A + 100 μM NADH + 5 μM mitoTEMPO): restored
- mitoROS level ([3]; MI mice, 0.7 mg/kg/day intraperitoneally for two weeks, scar border cardiomyocytes, untreated MI 1.5±0.2 fold): 1.2±0.2 fold
- mitochondrial ROS, effect in words [3, 8]: statistically significant decrease
- echocardiography parameters, untreated vs treated groups [4]: no significant differences

Molecule: NC(=O)c1ccc[n+]([C@@H]2O[C@H](COP(=O)([O-])OP(=O)(O)OC[C@H]3O[C@@H](n4cnc5c(N)ncnc54)[C@H](O)[C@@H]3O)[C@@H](O)[C@H]2O)c1 [NAD^+, β-Nicotinamide adenine dinucleotide hydrate]
- mitochondrial ROS levels in DOCA myopathic mice myocytes (mitochondrial ROS [5]; 500 μmol/L): reduced
- MitoROS level increased by PL (mitochondrial ROS [5]; 500 μmol/L NAD+ for ~6 hours, then PL buffer 10 minutes): Decreased
- inhibition of NADH on cardiac INa, effect of extracellular NAD ([2]; 100 μmol/L NADH, NAD from 50 to 1000 μmol/L): reversed the inhibition of NADH on cardiac INa in a dose-dependent manner
- mitochondrial ROS (mitochondrial ROS [6]): 1.1±0.1 fold of sham
- peak INa of DOCA mouse cardiomyocytes (cardiac INa): restored INa to the sham level
- reduced INa in cardiomyopathy of DOCA (INa; DOCA mice): corrected
- INa, effect on the sham group (INa; sham mice): no effect

Molecule: antimycin A
- peak INa at −30 mV, effect of antimycin A ([7]; 5-10 μM, compared with SCN5A alone (untreated)): decreased

Molecule: COC1=C(OC)C(=O)C(CCCCCCCCCC[P+](c2ccccc2)(c2ccccc2)c2ccccc2)=C(C)C1=O [MitoQ, 10-(6′-Ubiquinolyl)decylthriphenylphosphonium bromide]
- ROS (MitoSOX density) generated by antimycin A (ROS): elevated MitoSOX density
- ROS (MitoSOX density) generated by antimycin A (ROS; listed as Mito Q): decreased ROS
- INa decreased by antimycin A, effect of antioxidant ([7]; 10 nM, 1-2 hour preincubation, antimycin A 5-10 μM, peak INa at −30 mV, room temperature): restored INa
